Test results reported in paper PMC11477167, “Structure–Function Relationship of a Novel MTX-like Peptide (MTX1) Isolated and Characterized from the Venom of the Scorpion Maurus palmatus” (International Journal of Molecular Sciences, 2024).
Entries after “also recorded” stand apart in the source; their conditions may differ. Bridge positions count the residues as written; N and C are the ends. Peptide text beside a SMILES is read from it.

Experiments:
[1] = tested on: glioma and melanoma cells; details: glioma (charybdotoxin) and melanoma (iberiotoxin); ref [12],[14]; cited from earlier work
Source text: (§1) For instance, several research projects have focused on the use of scorpion neurotoxins as potential new treatments against cancers.

glioblastoma = details: subject of clinical trials; ref [9],[12],[13]; cited from earlier work
Source text: as §1

[2] = tested on: human lung adenocarcinoma cells; details: by blocking Kv1.2 and Kv1.3; ref [15],[16]; cited from earlier work
Source text: as §1

[3] = tested on: 125I-apamin binding site of rat brain synaptosomes (SKCa channels); experiment: Competition binding with 125I-apamin on rat brain synaptosomes (SKCa channels)
Protocol: The rats were euthanized by dislocation and their brains were rapidly removed and placed on a cold plate. The brain tissue was suspended in a 10% (w/v) sucrose-HEPES buffer in a polytron homogenizer with a protease inhibitor. Synaptosomal membranes were prepared as previously described. The protein content of the membranes, determined by the […], was 0.92 µg/µL. The protein content was determined using a modified Lowry method, with assays conducted on the synaptosomal fraction P2 isolated from rat brain. MTX1 was reacted with Na [^125I] (Amersham Biosciences, Buckinghamshire, United Kingdom) in the presence of lactoperoxidase and H2O2 in 50 mM phosphate buffer at pH 7.2. The separation of free iodine was achieved by anion exchange chromatography using Dowex 1X-8 (Merck, Darmstadt, Germany). The mixture was then injected into a reverse-phase HPLC column (analytical RP-C18 Beckman, Ultrasphere, 5 μm, 4.6 × 250 mm). Solvent A consisted of 0.1% trifluoroacetic acid (v/v) in water, and solvent B consisted of 0.1% trifluoroacetic acid (v/v) in acetonitrile. The HPLC experiments were performed as previously described. Radioactivity was quantified using a Packard spectrometer (Crystal I1 multidetector system, San Francisco, CA, USA) with the native toxin eluted at 18 min. The iodination mixture yielded only two peaks (RT = 2 min and RdT = 25 min); approximately 70–85% of the radioactivity was linked to the peak (RT = 25 min), which was postulated to correspond to the mono-iod derivative.
4.10. Binding Assay for SKCa Channels
The process of iodination of apamin was executed utilizing IODO-GEN. In displacement assays, 50 μL of 0.1 nM ^125I-apamine (2000 Ci/mmol) was combined with 400 µL of synaptosome suspension (0.4 mg protein/mL). The samples were incubated with 50 µL of one of the competitor concentration series (MTX1, MTX or CHTX) in a final volume of 500 µL for 1 h at 0 °C. The incubation buffer consisted of 25 mM hydroxymethyl amino methane (Tris-HCl) (pH 7.2), 10 mM potassium chloride (KCl) and 0.1% BS. Following centrifugation for 10 min, the samples were centrifuged again and the resulting pellets were washed three times with 2 mL of the same buffer. The quantification of bound radioactivity was conducted utilizing (Packard Crystal II). The mean values of triplicate experiments are reported. Non-specific binding, characterized as less than 10% of total binding, was determined in the presence of an excess (10 nM) of unlabeled apamin.

C57BL/6 mice = experiment: Neurotoxic activity in mice by intracerebroventricular injection (LD50); format: in vivo, mouse
Protocol: 4.5. The Neurotoxic Activity of MTX1 in Mice
To assess the LD50 of the MTX1, different doses of the peptide were administered to males C57BL/6 mice (20 ± 2 g) by an intracerebroventricular injection under ether anesthesia, which is considered the most sensitive route for scorpion toxins in mammals. Each dose was suspended/diluted in 5 μL of 0.1% (w/v) BSA and tested on six mice. Symptoms of toxicity were observed and recorded over a 24 h period. The median lethal dose (LD50) corresponds to the dose required to kill half of the tested mice.

rat Kv1.3 = molecular target: T1, rat Kv1.3 (Rattus norvegicus, UniProt P15384); experiment: Two-electrode voltage clamp, Kv1.3 expressed in Xenopus laevis oocytes; format: cell-based
T1 construct: expressed in transfected cells; host or cells: Xenopus laevis oocytes, cRNA injection
Source text: (§2) 4.11. Oocyte Preparation and Electrophysiological Recordings
(§3) The xenopus was anesthetized in a bath of tricaine solution. It was then placed on its back in a dissecting tank covered with alcohol-cleaned BenchGuard paper. A horizontal slit was made in the animal’s lower abdomen by incising a piece of the underlying muscle with the skin. The ootheca were then gently pulled outwards and a portion was cut out and transferred to a sterile Erlen tube containing MBS medium, leaving the rest in place in the ovary. Finally, the incision was closed using sterile, absorbable sutures.
(§4) Xenopus laevis oocytes at stages V and VI were retrieved and prepared for cRNA injection and electrophysiological recordings. The enzymatic elimination of oocyte follicular cell layers was carried out by employing 2 mg·mL^−1 collagenase IA (Sigma, St. Louis, MO, USA) in the classical Barth’s medium containing (in mm) 88 NaCl, 1 KCl, 0.82 MgSO4, 0.33 Ca(NO3)2, 0.41 CaCl2, 2.4 NaHCO3, and 15N-2-hydroxyethylpiperazine-N′-ethanesulfonic acid (Hepes), with a pH of 7.4 (NaOH). The plasmids were digested using Xba1 (rat Kv1.2) and EcoR1 (rat Kv1.3). The resultant linearized plasmids were transcribed using either a T7 or SP6 mMessage mMachine transcription kit (Ambion, Austin, TX, USA). Subsequently, cRNAs (1 µg·µL^−1) were cryopreserved in H2O at −80 °C. Injection of cells with 50 nL of cRNA (0.2 µg·µL^−1 rat Kv1.2, or Kv1.3 channels) took place 2 days later. To promote the expression of ion channels, the cells were cultured at 16 °C in a specified nutrient oocyte medium for 2–6 days prior to conducting current recordings. Oocyte currents were captured at 20–22 °C using conventional two-microelectrode techniques with a voltage-clamp amplifier (GeneClamp 500; Axon Instruments, Foster City, CA, USA) linked to a 16-bit AD/DA converter (Digidata 1200A, Axon Instruments). […] Voltage pulses were administered every 15 s, maintaining a holding potential of −80 mV. Current data were sampled at 10 kHz, subjected to low-pass filtration at 2 kHz through an eight-pole Bessel filter and archived on a computer for subsequent assessment. The extracellular solution for recording contained (in mM) 88 NaCl, 10 KCl, 2 MgCl2, 0.5 CaCl2, 0.5 niflumic acid, 5 Hepes, and 0.1% bovine serum albumin, with a pH of 7.4 (NaOH). The P/4 protocol was implemented for online subtraction of the leak and capacitive currents. Any residual capacitive artifacts were eliminated for visualization purposes. The peptide solutions of MTX1 were perfused into the recording chamber at a flow rate of 2 mL/min using a ValveBank4 apparatus (Automate Scientific Inc., St Berkeley, CA 94710, USA). Data analysis was conducted using the software patch clamp 6.0.3 (Axon Instruments, Foster City, CA, USA). The outcomes are presented as the mean ± SEM.

[4] = tested on: anti-MTX mice polyclonal antibodies; experiment: ELISA cross-antigenicity with anti-MTX serum; format: binding, mouse
Protocol: Upon retrieval of pre-immune serum via retro-orbital puncture, 30 µg of MTX1 or saline (0.9% NaCl) in complete Freund’s adjuvant was subcutaneously administered to 6-week-old mice on day 1. Subsequent booster injections of incomplete Freund’s adjuvant were administered 15 and 25 days later. On […], the mice were bled and used for ELISA experiments in 96-well microtitration plates (catalog number M5785-1CS Sigma Aldrich, MO, USA). […] The optimal dilution of the immune serum resulting in half-maximum binding of MTX to its specific antiserum was determined to be 1/100,000.
The specificity of anti-MTX against MTX1 and CHTX toxins was assessed using ELISA. One hundred microliters of 5 μg/mL of antigen (MTX1 and CHTX) in 0.1 M sodium bicarbonate buffer at pH 9.6 were adsorbed on 96-well NUNC plates for 90 min at 37 °C. […] Finally, 200 μL of 0.4 mg/mL OPD in citrate buffer (pH 5.2 containing H2O2 (0.03%) was added to each well, followed by a 5 min incubation in the dark at room temperature. The reaction was halted by adding 50 μL of 2 N sulfuric acid. The absorbance at 492 nm was measured using a spectrophotometer (Thermo-Multiskan EX, Shanghai, China). The immune serum titer corresponded to the dilution that yielded 50% of the maximum absorbance.

rat Kv1.2 = molecular target: T2, rat Kv1.2 (Rattus norvegicus, UniProt P63142); experiment: Two-electrode voltage clamp, Kv1.2 expressed in Xenopus laevis oocytes; format: cell-based
T2 construct: expressed in transfected cells; host or cells: Xenopus laevis oocytes, cRNA injection
Source text: as §2, §3, §4

[5] = tested on: 125I-CHTX binding site of rat brain synaptosomes (Kv channels); experiment: Competition binding with 125I-CHTX on rat brain synaptosomes; details: conclusion in words
[6] = comparison in words (Kv1.2 and SKCa channels together)
[7] = 2.5 nM, extracellular application
[8] = kinetics of inhibition, after washing
[9] = oocytes, one value printed for Kv1.2 and Kv1.3

T1 sequence (P15384 whole entry): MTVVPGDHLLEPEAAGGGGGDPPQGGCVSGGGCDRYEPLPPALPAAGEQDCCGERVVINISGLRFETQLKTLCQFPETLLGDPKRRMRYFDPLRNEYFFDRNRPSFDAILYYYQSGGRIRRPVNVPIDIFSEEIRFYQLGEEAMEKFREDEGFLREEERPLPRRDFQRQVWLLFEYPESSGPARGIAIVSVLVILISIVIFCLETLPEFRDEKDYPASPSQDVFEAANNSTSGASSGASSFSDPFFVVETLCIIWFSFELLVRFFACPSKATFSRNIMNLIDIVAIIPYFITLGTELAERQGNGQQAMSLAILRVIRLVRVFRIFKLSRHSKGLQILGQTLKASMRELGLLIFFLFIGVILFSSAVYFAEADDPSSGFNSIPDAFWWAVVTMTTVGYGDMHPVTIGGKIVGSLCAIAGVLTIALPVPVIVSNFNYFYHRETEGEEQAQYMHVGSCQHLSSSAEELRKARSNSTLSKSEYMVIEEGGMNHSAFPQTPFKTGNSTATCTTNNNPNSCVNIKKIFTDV
T2 sequence (P63142 whole entry): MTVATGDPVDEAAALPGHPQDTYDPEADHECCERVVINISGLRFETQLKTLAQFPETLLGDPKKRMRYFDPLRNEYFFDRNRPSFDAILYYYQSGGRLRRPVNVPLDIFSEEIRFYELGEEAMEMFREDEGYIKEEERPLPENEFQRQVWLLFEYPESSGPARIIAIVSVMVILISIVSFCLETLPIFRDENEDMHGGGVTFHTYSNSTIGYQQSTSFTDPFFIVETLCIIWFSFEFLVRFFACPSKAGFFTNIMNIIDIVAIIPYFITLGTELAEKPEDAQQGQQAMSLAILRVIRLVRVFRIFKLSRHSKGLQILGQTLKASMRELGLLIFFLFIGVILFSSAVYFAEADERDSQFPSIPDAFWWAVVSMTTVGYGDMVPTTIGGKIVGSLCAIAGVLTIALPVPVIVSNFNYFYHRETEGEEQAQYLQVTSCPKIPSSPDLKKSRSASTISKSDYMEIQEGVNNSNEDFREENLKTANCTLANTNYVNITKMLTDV

For “iberiotoxin (QFTDVDCSVSKECWSVCKDLFGVDRGKCMGKKCRCYQ; UniProt P24663 1-37, looked up)”, the “Inhibition of tumor cell proliferation and migration” value [1] is given as “able to inhibit glioma and melanoma cell proliferation and migration”.

In the case of chlorotoxin, the “Effect on glioblastoma cells” value (glioblastoma) is listed as “specifically targets the invasion and migration of glioblastoma cells”.

In the case of “margatoxin (TIINVKCTSPKQCLPPCKAQFGQSAGAKCMNGKCKCYPH; UniProt P40755 1-39, looked up)”, the Inhibition of proliferation [2] is given as “inhibited the proliferation of human lung adenocarcinoma cells”.

With CSCC[C@@H]1NC(=O)[C@@H]2CSSC[C@H](NC(=O)[C@H](CO)NC(=O)[C@@H](N)C(C)C)C(=O)N[C@@H]([C@@H](C)O)C(=O)NCC(=O)N[C@@H](CO)C(=O)N[C@@H](CCCCN)C(=O)N[C@@H](CCC(=O)O)C(=O)N[C@@H](CSSC[C@@H](C(=O)N[C@@H](CCCCN)C(=O)N[C@H]3CSSC[C@@H](C(N)=O)NC(=O)CNC(=O)[C@H](Cc4ccc(O)cc4)NC3=O)NC(=O)[C@H](CCCCN)NC(=O)[C@H](CCCNC(=N)N)NC(=O)[C@H](CC(N)=O)NC1=O)C(=O)N[C@@H](Cc1ccc(O)cc1)C(=O)N[C@@H](C)C(=O)N1CCC[C@H]1C(=O)N[C@H]1CSSC[C@H](NC(=O)CNC(=O)[C@H]([C@@H](C)O)NC(=O)[C@H](CCC(N)=O)NC(=O)[C@H](CCCCN)NC(=O)[C@H](CCCCN)NC1=O)C(=O)N1CCC[C@H]1C(=O)N[C@@H](CC(N)=O)C(=O)N[C@@H](C)C(=O)N[C@@H](CCCCN)C(=O)N2 [MTX1] (H-VSCTGSKECYAPCKKQTGCPNAKCMNRKCKCYGC-NH2; disulfide 3-24, 9-29, 13-19, 31-34; N-terminus and C-terminus assumed) the “Potency on SKCa channels relative to MTX” value [3, 6] was “higher binding affinity; also recorded: significantly more effective at inhibiting the Kv1.2 currents and SKCa channels”, the “Affinity relative to MTX, apamin-sensitive SKCa channels” value ([3]; comparison of IC50 of MTX1 with IC50 of MTX (5 nM)) was “almost three times higher than that of MTX” and the IC50 ([3]; rat brain synaptosomes (0.4 mg protein/mL), 50 μL of 0.1 nM 125I-apamin, 1 h, 0 °C, pH 7.2, mean of triplicate, read-out: IC50, inhibition of 125I-apamin binding) was 1.7 nM. The “Recognition of apamin receptor sites” value ([3]; rat brain synaptosomes, conclusion in words) was “recognizes apamin receptor sites with a high affinity and binds partially with these sites”, the “Toxicity in mice (qualitative)” value (C57BL/6 mice; i.c.v. injection) was “highly toxic” and the “Toxicity in mice relative to MTX” value (C57BL/6 mice; i.c.v., LD50 comparison with MTX) was “approximately eight times more lethal than MTX; also recorded: eight times more effectively than MTX; also recorded: eight times more toxicity than MTX”. The “Dose with maximum fatality rate” value (C57BL/6 mice; i.c.v., doses 4, 6, 8, 10, 15 and 20 ng, six mice each) was 20 ng, the Time to death (C57BL/6 mice; i.c.v., doses 4–20 ng) was 10 min and the LD50 (C57BL/6 mice; i.c.v., male C57BL/6 mice (20 ± 2 g), six mice per dose, 4–20 ng, observed 24 h) was 10 ng per mouse. For the same molecule, the LD50 (C57BL/6 mice; i.c.v., mice) was 0.01 μg/mouse, the “Reduction of outward Kv1.3 currents over voltage” value (rat Kv1.3; [7]) was “markedly reduced outward Kv1.2 and Kv1.3 currents at all test voltages examined” and the “Block of Kv1.3 relative to MTX” value (rat Kv1.3; comparison in words) was “comparable effect to MTX; also recorded: in a comparable manner to MTX”. The “Reversibility on washing, Kv1.3” value (rat Kv1.3; [8]) was “partial recovery after the washing”, the “Hill coefficient, Kv1.3 concentration-response” value (rat Kv1.3; [9]) was 1.1 ± 0.1 and the “Recognition by anti-MTX antibodies” value ([4]; different dilutions of anti-MTX mice polyclonal antibodies) was “well recognized by anti-MTX antibodies; also recorded: distinctly recognized”. The “IC50 of anti-MTX serum binding relative to MTX” value ([4]; plates coated with 5 µg/mL antigen) was “identical”, the “IC50 on Kv1.2 relative to MTX” value (rat Kv1.2; 0.26 nM of MTX1 against 0.8 nM of MTX) was “three times lower than that of MTX” and the “Reduction of outward Kv1.2 currents over voltage” value (rat Kv1.2; [7]) was “markedly reduced outward Kv1.2 and Kv1.3 currents at all test voltages examined”. The inhibition at 0.0025 µM (rat Kv1.2; 2.5 nM, oocytes, read-out: Inhibition of Kv1.2 currents) was 90%, the “Potency on Kv1.2 relative to MTX” value (rat Kv1.2; [6]) was “higher binding affinity; also recorded: more active than MTX on the Kv1.2 channel; also recorded: significantly more effective at inhibiting the Kv1.2 currents and SKCa channels” and the “Reversibility on washing, Kv1.2” value (rat Kv1.2; [8]) was “partial recovery after the washing”. The “Hill coefficient, Kv1.2 concentration-response” value (rat Kv1.2; [9]) was 1.1 ± 0.1 and the “Interaction with the CHTX-binding site” value [5] was “partially interacted with the CHTX-binding site”.
